The target of this assay is recombinant human GST-Syk (Homo sapiens (Human), UniProt P43405). The experiment in a line: Homogeneous Time-Resolved Fluorescence (HTRF) assay for the recombinant human Syk enzyme. Format: biochemical. The settings on record: recombinant human GST-Syk 5 pM, ATP 25 μM, read-out: rhSyk IC50. As for the experimental part: Syk inhibition may be determined using the following assay protocol: Homogeneous Time-Resolved Fluorescence (HTRF) Assay for the Recombinant Human Syk Enzyme: A recombinant GST-hSyk fusion protein was used to measure potency of compounds to inhibit human Syk activity. […] To initiate the reaction the biotinylated substrate peptide (250 nM final concentration) that contains the phosphorylation site for Syk was added with magnesium (5 mM final concentration) and ATP (25 μM final concentration). […] Final volume of the quenching solution was 10 μL.

Among the data in patent publication US9145391B2, “Bipyridylaminopyridines as Syk inhibitors” (Merck Sharp & Dohme Corp., priority 2011, dated 2015) are IC50 values, retold here.

What is called IC50 is the concentration needed to halve the response being measured.

Some results are limits rather than exact numbers.

As for `Cc1cc(Nc2cc(C(F)(F)F)ccn2)nc(-c2ccc(C(C)(O)[C@H]3CC[C@H](C(=O)O)CC3)nc2)c1` (single isomer, unassigned) [Example 1, trans-4-((1R or 1S)-1-Hydroxy-1-(4-methyl-6-(4-(trifluoromethyl)pyridin-2-ylamino)-2,3′-bipyridin-6′-yl)ethyl)cyclohexanecarboxylic acid], the IC50 is less than 0.5 nM. For `COC(=O)C1CCC(O)(c2ccc(-c3cc(C)cc(Nc4cc(C(F)(F)F)ccn4)n3)cn2)CC1(C)C` (single isomer, unassigned) [Example 1-6], the IC50 is 405 nM.

For `COC(=O)C1CCC(O)(c2ccc(-c3cc(C)cc(Nc4cc(C(F)(F)F)ccn4)n3)cn2)CC1(C)C` (single isomer, unassigned) [Example 1-7], the IC50 is 245 nM. In the case of `COC(=O)C1CCC(O)(c2ccc(-c3cc(C)cc(Nc4cc(C(F)(F)F)ccn4)n3)cn2)CC1(C)C` (single isomer, unassigned) [Example 1-9], the IC50 is 100 nM. `Cc1cc(Nc2cc(C(F)(F)F)ccn2)nc(-c2ccc(NC3CCC(C(=O)O)C(C)C3)nc2)c1` (single isomer, unassigned) [Example 3-2]: the concentration for half-maximal inhibition (IC50) was less than 0.5 nM.

For `Cc1cc(Nc2cc(C(F)(F)F)ccn2)nc(-c2ccc(NC3CCC(C(=O)O)C(C)C3)nc2)c1` (single isomer, unassigned) [Example 3-3], the concentration for half-maximal inhibition (IC50) stood at 1 nM. Regarding `Cc1cc(Nc2cc(C(F)(F)F)ccn2)nc(-c2ccc(NC3CCC(C(=O)O)C(C)(C)C3)nc2)c1` (single isomer, unassigned) [Example 3-4], the IC50 is less than 0.5 nM. Take `Cc1cc(Nc2cc(C(F)(F)F)ccn2)nc(-c2ccc(NC3CCC(C(=O)O)C(C)(C)C3)nc2)c1` (single isomer, unassigned) [Example 3-5]: the IC50 came out at 2 nM.

On to `Cc1cc(Nc2cc(C(F)(F)F)ccn2)nc(-c2ccc([C@]3(O)CC[C@H](C(N)=O)C(C)(C)C3)nc2)c1` (single isomer, unassigned) [Example 8, (1S,4S or 1R,4R)-4-Hydroxy-2,2-dimethyl-4-(4-methyl-6-{[4-(trifluoromethyl)pyridin-2-yl]amino}-2,3′-bipyridin-6′-yl)cyclohexanecarboxamide], for which the IC50 was found to be 23 nM.

For the compound `COC(=O)[C@H]1CC[C@H](C(C)(O)c2ccc(-c3cc(C)cc(Nc4cc(C(F)F)ccn4)n3)cn2)CC1` (single isomer, unassigned) [Example 11, Methyl trans-4-[(1R or 1S)-(6-{[4-(difluoromethyl)pyridin-2-yl]amino}-4-methyl-2,3′-bipyridin-6′-yl)-1-hydroxyethyl]cyclohexanecarboxylate], the IC50 was 9 nM. As for `Cc1cc(Nc2cc(C(F)F)ccn2)nc(-c2ccc(C(C)(O)[C@H]3CC[C@H](C(=O)O)CC3)nc2)c1` (single isomer, unassigned) [Example 12, trans-4-[(1R or 1S)-(6-{[4-(Difluoromethyl)pyridin-2-yl]amino}-4-methyl-2,3′-bipyridin-6′-yl)-1-hydroxyethyl]cyclohexanecarboxylic acid], the IC50 was less than 0.5 nM.

As for `Cc1cc(Nc2cc(C(F)F)ccn2)nc(-c2ccc(C(C)(O)C3CCC(C(=O)O)CC3)nc2)c1` (single isomer, unassigned) [Example 12-1, trans-4-[(1R or 1S)-(6-{[4-(difluoromethyl)pyridin-2-yl]amino}-4-methyl-2,3′-bipyridin-6′-yl)-1-hydroxyethyl]cyclohexanecarboxylic acid], the IC50 is 1 nM. The same measure for `Cc1cc(Nc2cc(C(F)F)ccn2)nc(-c2ccc(C(C)(O)[C@H]3CC[C@@H](C(=O)O)CC3)nc2)c1` (single isomer, unassigned) [Example 12-2, cis-4-[(1R or 1S)-(6-{[4-(difluoromethyl)pyridin-2-yl]amino}-4-methyl-2,3′-bipyridin-6′-yl)-1-hydroxyethyl]cyclohexanecarboxylic acid]: less than 0.5 nM; for `Cc1cc(Nc2cc(C(F)F)ccn2)nc(-c2ccc(C(C)(O)[C@H]3CC[C@@H](C(=O)O)CC3)nc2)c1` (single isomer, unassigned) [Example 12-3, cis-4-[(1R or 1S)-(6-{[4-(difluoromethyl)pyridin-2-yl]amino}-4-methyl-2,3′-bipyridin-6′-yl)-1-hydroxyethyl]cyclohexanecarboxylic acid]: 1 nM. For the compound `Cc1cc(Nc2cc(C(F)F)ccn2)nc(-c2ccc(C(C)(F)[C@H]3CC[C@H](C(=O)O)CC3)nc2)c1` (single isomer, unassigned) [Example 13, trans-4-(1R or 1S)-(6-(4-(Difluoromethyl)pyridin-2-ylamino)-4-methyl-2,3′-bipyridin-6′-yl)-1-fluoroethyl)cyclohexanecarboxylic acid], the IC50 was less than 0.5 nM. `Cc1cc(Nc2cc(C(F)(F)F)ccn2)nc(-c2ccc(C(C)[C@H]3CC[C@H](C(=O)O)CC3)nc2)c1` (single isomer, unassigned) [Example 14, trans-4-[(1R or 1S)-(4-Methyl-6-{[4-(trifluoromethyl)pyridin-2-yl]amino}-2,3′-bipyridin-6′-yl)ethyl]cyclohexanecarboxylic acid]: the IC50 was less than 0.5 nM. On to `Cc1cc(Nc2cc(C(F)F)ccn2)nc(-c2ccc(C(C)(O)[C@H]3CC[C@H](C(=O)O)CC3)nc2)c1Br` (single isomer, unassigned) [Example 15, trans-4-((1R or 1S)-(3-Bromo-6-(4-(difluoromethyl)pyridin-2-ylamino)-4-methyl-2,3′-bipyridin-6′-yl)-1-hydroxyethyl)cyclohexanecarboxylic acid], for which the IC50 turned out to be 1 nM. For `Cc1cc(Nc2cc(C(F)F)ccn2)nc(-c2ccc(C(C)(O)[C@H]3CC[C@H](C(=O)O)CC3)nc2)c1` (single isomer, unassigned) [Example 16, Sodium trans-4-[(1R or 1S)-1-(6-{[4-(difluoromethyl)pyridin-2-yl]amino}-4-methyl-2,3′-bipyridin-6′-yl)-1-hydroxyethyl]cyclohexanecarboxylate], the IC50 is less than 0.5 nM. Take `Cc1cc(Nc2cc(C(F)F)ccn2)nc(-c2ccc(C(C)(O)[C@H]3CC[C@H](C(=O)OCCO)CC3)nc2)c1` (single isomer, unassigned) [Example 18, 2-Hydroxyethyl trans-4-[(1R or 1S)-1-(6-{[4-(difluoromethyl)pyridin-2-yl]amino}-4-methyl-2,3′-bipyridin-6′-yl)-1-hydroxyethyl]cyclohexanecarboxylate]: the IC50 is 3.4 nM. `Cc1cc(Nc2cc(C(F)F)ccn2)nc(-c2ccc(C(C)(O)[C@H]3CC[C@H](C(=O)OCc4ccccc4)CC3)nc2)c1` (single isomer, unassigned) [Example 19-1, benzyl trans-4-[(1R or 1S)-1-(6-{[4-(difluoromethyl)pyridin-2-yl]amino}-4-methyl-2,3′-bipyridin-6′-yl)-1-hydroxyethyl] cyclohexanecarboxylate]: the IC50 was 35 nM. On to `CCCOC(=O)[C@H]1CC[C@H](C(C)(O)c2ccc(-c3cc(C)cc(Nc4cc(C(F)F)ccn4)n3)cn2)CC1` (single isomer, unassigned) [Example 19-2, propyl trans-4-[(1R or 1S)-1-(6-{[4-(difluoromethyl)pyridin-2-yl]amino}-4-methyl-2,3′-bipyridin-6′-yl)-1-hydroxyethyl] cyclohexanecarboxylate], for which the IC50 worked out at 32 nM. For `Cc1cc(Nc2cc(C(F)F)ccn2)nc(-c2ccc(C(C)(O)[C@H]3CC[C@H](C(=O)OC(C)C)CC3)nc2)c1` (single isomer, unassigned) [Example 19-3, propan-2-yl trans-4-[(1R or 1S)-1-(6-{[4-(difluoromethyl)pyridin-2-yl]amino}-4-methyl-2,3′-bipyridin-6′-yl)-1-hydroxyethyl] cyclohexanecarboxylate], the IC50 worked out at 50 nM. On to `CCCCOC(=O)[C@H]1CC[C@H](C(C)(O)c2ccc(-c3cc(C)cc(Nc4cc(C(F)F)ccn4)n3)cn2)CC1` (single isomer, unassigned) [Example 19-4, butyl trans-4-[(1R or 1S)-1-(6-{[4-(difluoromethyl)pyridin-2-yl]amino}-4-methyl-2,3′-bipyridin-6′-yl)-1-hydroxyethyl] cyclohexanecarboxylate], for which the half-inhibitory concentration (IC50) was 65 nM. With `CCC(C)OC(=O)[C@H]1CC[C@H](C(C)(O)c2ccc(-c3cc(C)cc(Nc4cc(C(F)F)ccn4)n3)cn2)CC1` (single isomer, unassigned) [Example 19-5, butan-2-yl trans-4-[(1R or 1S)-1-(6-{[4-(difluoromethyl)pyridin-2-yl]amino}-4-methyl-2,3′-bipyridin-6′-yl)-1-hydroxyethyl] cyclohexanecarboxylate], the IC50 worked out at 7 nM. As for `Cc1cc(Nc2cc(C(F)F)ccn2)nc(-c2ccc(C(C)(O)[C@H]3CC[C@H](C(=O)OCC(C)C)CC3)nc2)c1` (single isomer, unassigned) [Example 19-6, 2-methylpropyl trans-4-[(1R or 1S)-1-(6-{[4-(difluoromethyl)pyridin-2-yl]amino}-4-methyl-2,3′-bipyridin-6′-yl)-1-hydroxyethyl] cyclohexanecarboxylate], the IC50 worked out at 74 nM.

Turning to `CCCCCOC(=O)[C@H]1CC[C@H](C(C)(O)c2ccc(-c3cc(C)cc(Nc4cc(C(F)F)ccn4)n3)cn2)CC1` (single isomer, unassigned) [Example 19-7, pentyl trans-4-[(1R or 1S)-1-(6-{[4-(difluoromethyl)pyridin-2-yl]amino}-4-methyl-2,3′-bipyridin-6′-yl)-1-hydroxyethyl] cyclohexanecarboxylate], the IC50 was determined as 100 nM. On to `Cc1cc(Nc2cc(C(F)F)ccn2)nc(-c2ccc(C(C)(O)[C@H]3CC[C@H](C(=O)OCC(C)(C)C)CC3)nc2)c1` (single isomer, unassigned) [Example 19-8, 2,2-dimethylpropyl trans-4-[(1R or 1S)-1-(6-{[4-(difluoromethyl)pyridin-2-yl]amino}-4-methyl-2,3′-bipyridin-6′-yl)-1-hydroxyethyl] cyclohexanecarboxylate], for which the IC50 is 150 nM.
